Source: PMC8348142, “Antimicrobial Peptide Modifications against Clinically Isolated Antibiotic-Resistant Salmonella” (Molecules, 2021)
Marks after values point to notes of the source that are not given here. Ends that are not written are not given here.

What was measured:
Type in all cases: cell-based
[1] = test system: clinical Salmonella isolates; assay: MBC, drop plate method, and MBC/MIC mode of action; conditions: for MBC: drop plate on MHA from MIC plate, 37 °C, 18 h, thrice
Method: (§1) All 12 isolates of Salmonella used in this study were clinical isolates and anonymous left-overs from laboratory diagnoses. They were maintained in a 20% glycerol (Sigma-Aldrich) stock at −80 °C and further cultured on Mueller-Hinton agar (MHA, Oxoid, Hampshire, UK) at 37 °C for 18 h to obtain single colonies for antimicrobial assays. This study was approved by the Ethics Committee of the Faculty of Tropical Medicine (Mahidol University, Bangkok, Thailand; MUTM-EXMPT 2017-007).
The plate derived from the MIC assay was immediately tested for the MBC using a drop plate method. A volume of 10 µL of the culture from individual wells at MIC, 2MIC, and 4MIC was dropped on MHA plates. […] The experiment was thrice performed.
In order to determine whether the peptides have bacteriostatic or bactericidal activity, a ratio of MBC to MIC (MBC/MIC) was applied. The ratio >4 was indicative of bacteriostatic peptide, and ≤4 was inferred as bactericidal peptide.

[2] = test system: clinical Salmonella isolates; assay: MIC, broth microdilution; conditions: MHB, 5 × 10^5 CFU/mL, 37 °C, 18 h, duplicate
Method: as §1
MIC was determined using the broth microdilution method described by Hancock with some modifications. Briefly, bacterial colonies grown from the MHA were prepared in MHB (Oxoid) as a 0.5 McFarland suspension (which is equal to 1 × 10^8 CFU/mL), and was further 200-fold diluted by the MHB (5 × 10^5 CFU/mL). The bacterial suspension (50 µL) was mixed with 2-fold serial dilutions of peptide (5.5 µL) achieving final concentrations of 256 to 1 µM using a round-bottom polypropylene (PP) 96-well plate (Greiner Bio-One). The plate was incubated at 37 °C for 18 h including incubating peptide free-bacteria as positive growth control, and MHB as negative growth control. After the incubation, the lowest concentration with no visible growth was defined as a MIC value. The assay was performed in a duplicate manner.

sheep red blood cells = assay: Hemolytic activity assay; conditions: for percent hemolysis: 2% sRBCs in PBS, 37 °C, 1 h, OD540, triplicate mean
Method: The peptide toxicity to the mammalian system was screened based on the hemolytic test by measuring the hemoglobin released from ruptured red blood cells (RBCs). In this study, sheep RBCs (sRBCs) were employed. They were thrice washed and prepared as a suspension in phosphate-buffered saline (PBS, Oxoid). A suspension of 2% sRBCs was incubated with 2-fold serial dilutions of peptide (final concentrations; 256 to 1 µM in a total volume of 200 µL) at 37 °C for 1 h. The solutions of 0.1% (final concentration) Triton X-100 (Sigma-Aldrich) and PBS containing the peptide solvent were used instead of the peptides as the controls of hemolysis at 100% and 0%, respectively. Thereafter, the post-incubated suspensions were centrifuged (1000× g, 3 min) to pelletize residual sRBCs. The supernatants were then transferred into a flat-bottom PS 96-well plate and were measured the absorbance at 540 nm (OD540) by a microplate reader. The test was conducted in triplicate and the mean OD540 was used to calculate the hemolysis (%) as; ((OD540 (peptide) − OD540 (PBS + peptide solvent))/(OD540 (0.1% Triton X-100) − OD540 (PBS + peptide solvent))) × 100. The hemolytic concentration 50 (HC50), a concentration inducing 50% hemolysis, was determined.
The GraphPad Prism version 7.00 (GraphPad Software, La Jolla, CA, USA) was applied for all statistical analyses and data visualizations. Replicate quantitative results were calculated and shown as mean ± SD, unless otherwise specified. The HC50 values were determined using nonlinear regression analysis. The paired t-test and repeated measures one-way ANOVA with Tukey’s multiple comparison test were applied to compare between 2 groups and among 3 or more groups, respectively. The comparisons were considered as a statistically significant difference when a p-value < 0.05.

Sequence: FIRRIARLLRRIF [Kn2-5R]
- GM of MBC ([1]; geometric mean over 12 clinical Salmonella isolates): 8 µM
- MBC ([1]; isolate 5 (Enteritidis)): 8 µM
- MBC ([1]; isolate 7 (Typhimurium)): 8 µM
- MBC ([1]; isolate 11 (I 1,4:i:-)): 8 µM
- MBC ([1]; isolate 18 (Stanley)): 8 µM
- MBC ([1]; isolate 26 (Typhimurium)): 8 µM
- MBC ([1]; isolate 27 (Typhimurium)): 8 µM
- MBC ([1]; isolate 55 (Typhimurium)): 8 µM
- MBC ([1]; isolate 61 (Enteritidis)): 8 µM
- MBC ([1]; isolate 69 (Typhimurium)): 8 µM
- MBC ([1]; isolate 76 (Enteritidis)): 8 µM
- MBC ([1]; isolate 78 (Enteritidis)): 8 µM
- MBC ([1]; isolate 107 (Typhimurium)): 8 µM
- MIC ([2]; isolate 5 (Enteritidis, blood; resistant AMP, SXT, KZ)): 8 µM
- MIC ([2]; isolate 7 (Typhimurium, blood; resistant AMP, CN, TE, NA, SXT)): 8 µM
- MIC ([2]; isolate 11 (I 1,4:i:-, blood; resistant AMP, TE, NA, SXT, C)): 8 µM
- MIC ([2]; isolate 18 (Stanley, urine; resistant TE, SXT, C)): 8 µM
- MIC ([2]; isolate 26 (Typhimurium, urine; resistant TZP, TE, NA)): 8 µM
- MIC ([2]; isolate 27 (Typhimurium, stool; resistant AMP, TE, NA, SXT, CIP)): 8 µM
- MIC ([2]; isolate 55 (Typhimurium, blood; resistant AMP, SXT, C, TE)): 8 µM
- MIC ([2]; isolate 61 (Enteritidis, blood; resistant AMP, TE, NA, SXT)): 8 µM
- MIC ([2]; isolate 69 (Typhimurium, stool; resistant AMP)): 8 µM
- MIC ([2]; isolate 76 (Enteritidis, CSF; resistant NA)): 8 µM
- MIC ([2]; isolate 78 (Enteritidis, blood; resistant TE, CIP, NA, SXT)): 8 µM
- MIC ([2]; isolate 107 (Typhimurium, stool; susceptible)): 8 µM
- HC50 (hemolytic concentration 50) (sheep red blood cells; concentration inducing 50% hemolysis of sRBCs, nonlinear regression, unit (µM)): 886.50 µM
- percent hemolysis (sheep red blood cells; peptide 1 µM): 0%
- percent hemolysis (sheep red blood cells; peptide 2 µM): 0%
- percent hemolysis (sheep red blood cells; peptide 4 µM): 0.4%
- percent hemolysis (sheep red blood cells; peptide 8 µM): 0.7 * %
- percent hemolysis (sheep red blood cells; peptide 16 µM): 1.4%
- percent hemolysis (sheep red blood cells; peptide 32 µM): 1.5%
- percent hemolysis (sheep red blood cells; peptide 64 µM): 1.8%
- percent hemolysis (sheep red blood cells; peptide 128 µM): 2.4%
- percent hemolysis (sheep red blood cells; peptide 256 µM): 10.6%
- concentration required for the initiation of hemolysis (sheep red blood cells; sRBCs, 60 min, 256–1 µM tested): 4 µM
